Results: patent US20080159995A1, “TREATMENT OF FIBROSIS” (priority 2006, published 2008)

Experiments:
[1] = cited from earlier work
[2] = system: A549 alveolar epithelial cells; assay: alveolar epithelial cell wound repair model (in vitro epithelial wound-healing assay); type: cell-based, human; settings: mechanically wounded monolayer, FIG. 4
Method: In the present studies an alveolar epithelial cells wound repair model was employed. […] Closure of this wound was monitored over 24 hours following treatment.
The wound healing assays were performed utilising A549 alveolar epithelial cells. The epithelial repair activity was determined using an in-vitro epithelial wound-healing assay as described in Example 1 (Geiser T et al. Am J Respir Crit. Care Med. 2001; 163: 1384-1388) using human A549 alveolar epithelial-like cells (American Type Culture Collection, Rockville, Md.). Briefly, A549 epithelial cells were cultured to confluency in 12-well plates for 48 hours in minimal essential medium (MEM) containing 10% fetal bovine serum and then mechanically wounded with a pipette tip. Concentrated BALF from each patient was added to the wounded epithelial monolayers (experiments performed in triplicates) and the area of the wound was measured over a time period of 24 hours.

[3] = system: Transforming Growth Factor (TGF)-β-Connective Tissue Growth Factor (CTGF) interactions via a Rho signalling pathway; settings: recent studies, refs 1 and 2; cited from earlier work

SMILES: CCC(C)C(=O)OC1CC(C)C=C2C=CC(C)C(CCC3CC(O)CC(=O)O3)C21 (stereo not drawn) [Lovastatin, [8-[2-(4-hydroxy-6-oxo-oxan-2-yl)ethyl]-3,7-dimethyl-1,2,3,7,8,8a-hexahydronaphthalen-1-yl]2-methylbutanoate]
- solubility in acetonitrile ([1]; acetonitrile): sparingly soluble
- solubility in ethanol ([1]; ethanol): sparingly soluble
- solubility in methanol ([1]; methanol): sparingly soluble
- solubility in water ([1]; water): insoluble

SMILES: CCC(C)(C)C(=O)O[C@H]1C[C@@H](C)C=C2C=C[C@@H](C)[C@H](CC[C@@H]3C[C@@H](O)CC(=O)O3)[C@H]21 [simvastatin, [(1S,3R,7R,8S,8aR)-8-[2-[(2R,4R)-4-hydroxy-6-oxo-oxan-2-yl]ethyl]-3,7-dimethyl-1,2,3,7,8,8a-hexahydronaphthalen-1 yl]2,2-dimethylbutanoate]
- wound closure [2]: improves wound closure
- anti-fibrotic potential (TGF-β-CTGF interactions, pro-fibrotic differentiation) [3]: over-riding Transforming Growth Factor (TGF)-β-Connective Tissue Growth Factor (CTGF) interactions
